Assay results taken from patent publication US20080132505A1 (Glaxo Group Limited, priority 2004, published 2008).

Target: human cannabinoid CB2 receptor (Homo sapiens, UniProt P34972)
Test: Cannabinoid CB2 receptor agonist activity (yeast reporter assay, FDGlu fluorescence)
Format: cell-based
Conditions: for EC50: EC50 value at the cloned human cannabinoid CB2 receptor; for Emax: read-out: efficacy value (Emax relative to HU210) at the cloned human cannabinoid CB2 receptor
Procedure, shortened: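 S. cerevisiae MMY23 expressing human CB2 with a Gpa1/Gαi3 chimeric G-protein, grown 24 h at 30 °C with agonist (1% DMSO) in selective media containing 10 mM 3-aminotriazole and FDGlu, pH 7.0. Fluorescein fluorescence (485/535 nm) fitted by four-parameter curve; Emax and EMR relative to HU210.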

human cannabinoid CB2 receptor, sequence (P34972 whole entry): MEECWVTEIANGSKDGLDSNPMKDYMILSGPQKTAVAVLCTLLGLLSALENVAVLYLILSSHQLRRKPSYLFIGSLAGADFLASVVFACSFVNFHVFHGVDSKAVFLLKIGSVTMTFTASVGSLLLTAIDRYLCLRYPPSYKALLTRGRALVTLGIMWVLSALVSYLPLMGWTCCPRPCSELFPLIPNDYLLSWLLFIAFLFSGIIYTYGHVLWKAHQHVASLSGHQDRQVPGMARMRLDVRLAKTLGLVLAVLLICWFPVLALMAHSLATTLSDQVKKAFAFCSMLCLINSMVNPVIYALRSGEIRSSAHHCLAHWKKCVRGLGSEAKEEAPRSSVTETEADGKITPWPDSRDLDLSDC

SMILES	EC50 [µM]	Emax [%]	activity in the CB2 assay described herein
O=C(NCC1CCC1)c1cnc(Nc2cccc(Cl)c2)nc1C(F)(F)F [Example 54, 2-(3-Chlorophenylamino)-4-trifluoromethylpyrimidine-5-carboxylic acid cyclobutylmethyl-amide]	0.02 to 0.3	> 50	
CC(C)c1cc(Nc2cc(Cl)ccc2C#N)ncc1C(=O)NCC1CCOCC1 [Example 679, 6-(5-Chloro-2-cyano-phenylamino)-4-isopropyl-N-(tetrahydro-pyran-4-ylmethyl)-nicotinamide]		< 30	
O=C(NCC1CCCCC1)c1cnc(Nc2cc(F)cc(F)c2)nc1C(F)(F)F [Example 169, 2-(3,5-Difluorophenylamino)-4-trifluoromethyl-pyrimidin-5-carboxylic acid cyclohexylmethyl-amide]	0.02 to 0.3	> 50	
O=C(NCC1CCC1)c1cnc(Nc2cccc(F)c2)nc1C(F)(F)F [Example 198, 2-(3-Fluorophenylamino)-4-trifluoromethyl-pyrimidine-5-carboxylic acid cyclobutylmethyl-amide]	0.02 to 0.3	> 50	
O=C(NCC1CCC1)c1cnc(Nc2cccc(Br)c2)nc1C(F)(F)F [Example 199, 2-(3-Bromophenylamino)-4-trifluoromethyl-pyrimidine-5-carboxylic acid cyclobutylmethyl-amide]	0.02 to 0.3	> 50	
CC(C)(C)c1ccc(Nc2ncc(C(=O)NCc3ccccc3)c(C(F)(F)F)n2)cc1 [2-(4-tert-butyl-phenylamino)-4-trifluoromethyl-pyrimidine-5-carboxylic acid benzylamide]			inactive
O=C(NCC1CCOCC1)c1cnc(Nc2ccc(F)c(Cl)c2)nc1C(F)(F)F [Example 215, 2-(4-Fluoro-3-chloro-phenylamino)-4-trifluoromethyl-pyrimidine-5-carboxylic acid (tetrahydro-pyran-4-ylmethyl)-amide]	0.02 to 0.3	> 50	
O=C(c1cnc(Nc2ccc(Cl)cc2Cl)nc1C(F)(F)F)N1CCOCC1 [Example 7, 1-[2-(2,4-Dichlorophenylamino)-4-trifluoromethylpyrimidin-5-yl]-1-morpholin-4-yl-methanone]	0.02 to 0.3	> 50	
O=C(NCC1CCC1)c1cnc(Nc2cc(Cl)ccc2F)nc1C(F)(F)F [Example 191, 2-(5-Chloro-2-fluorophenylamino)-4-trifluoromethyl-pyrimidine-5-carboxylic acid cyclobutylmethyl-amide]	0.02 to 0.3	> 50	
O=C(NCC1CCCCC1)c1cnc(Nc2ccc(Cl)c(Cl)c2)nc1C(F)(F)F [Example 17, 2-(3,4-Dichlorophenylamino)-4-trifluoromethylpyrimidine-5-carboxylic acid cyclohexylmethyl-amide]	0.02 to 0.3	> 50	
O=C(NCC1CCOCC1)c1cnc(Nc2cccc(F)c2F)nc1C(F)(F)F [Example 107, 2-(2,3-Difluoro-phenylamino)-4-tri-fluoromethyl-pyrimidine-5-carboxylic acid (tetrahydropyran-4-ylmethyl)-amide]	0.3 to 1	> 50	
Cc1cc(Nc2ncc(C(=O)NCC3CCOCC3)c(C(F)(F)F)n2)ccc1Cl [Example 187, 2-(4-Chloro-3-methylphenylamino)-4-trifluoromethyl-pyrimidine-5-carboxylic acid (tetrahydropyran-4-ylmethyl)-amide]	0.02 to 0.3	> 50	
N#Cc1ccc(Nc2ncc(C(=O)NCC3CCC3)c(C(F)(F)F)n2)cc1Cl [Example 197]		> 50	
O=C(NC1CCS(=O)(=O)CC1)c1cnc(Nc2ccc(Cl)cc2Cl)nc1C(F)(F)F [Example 220, 2-(2,4-Dichloro-phenylamino)-4-trifluoromethyl-pyrimidine-5-carboxylic acid (1,1-dioxo-hexahydro-1l^6-thiopyran-4-yl)-amide]	0.02 to 0.3	> 50	
O=C(NCC1CCCC1)c1cnc(Nc2cc(F)ccc2Cl)nc1C(F)(F)F [Example 249, 2-(2-Chloro-5-fluoro-phenylamino)-4-trifluoromethyl-pyrimidine-5-carboxylic acid cyclopentylmethyl-amide]	0.02 to 0.3	> 50	
O=C(NCC1CCOCC1)c1cnc(Nc2ccc(C(F)(F)F)cc2Cl)nc1C(F)(F)F [Example 236, 2-(2-Chloro-4-trifluoromethyl-phenylamino)-4-trifluoromethyl-pyrimidine-5-carboxylic acid (tetrahydro-pyran-4-ylmethyl)-amide]	0.02 to 0.3	> 50	
O=C(NCC1(O)CCCCC1)c1cnc(Nc2cccc(Br)c2)nc1C(F)(F)F [Example 165, 2-(3-Bromophenylamino)-4-trifluoromethyl-pyrimidine-5-carboxylic acid (1-hydroxycyclohexylmethyl)-amide]	0.02 to 0.3	> 50	

SMILES	EC50 [µM]	Emax [%]	activity in the CB2 assay described herein
N#Cc1cc(C#N)cc(Nc2ncc(C(=O)NCC3CCCCC3)c(C(F)(F)F)n2)c1 [Example 89, 2-(3,5-Dicyano-phenylamino)-4-trifluoromethyl-pyrimidine-5-carboxylic acid cyclohexylmethyl-amide]	0.3 to 1	> 50	
O=C(NCC1CCCCC1)c1cnc(Nc2ccccc2)nc1C(F)(F)F [Example 5]		> 50	
O=C(NC1CCC1)c1cnc(Nc2cccc(Cl)c2Cl)nc1C(F)(F)F [Example 48, 2-(2,3-Dichlorophenylamino)-4-trifluoromethylpyrimidine-5-carboxylic acid cyclobutylamide]	0.02 to 0.3	> 50	
N#Cc1cccc(Nc2ncc(C(=O)NCC3CCCCC3)c(C(F)(F)F)n2)c1 [Example 171, 2-(3-Cyanophenylamino)-4-trifluoromethyl-pyrimidine-5-carboxylic acid cyclohexylmethyl-amide]	0.02 to 0.3	> 50	
N#Cc1ccc(Nc2ncc(C(=O)NCc3ccc(F)cc3)c(C(F)(F)F)n2)cc1Cl [Example 351, 2-(3-Chloro-4-cyano-phenylamino)-4-trifluoromethyl-pyrimidine-5-carboxylic acid 4-fluoro-benzylamide]	0.02 to 0.3	> 50	
Cc1cc(Cl)cc(C)c1Nc1ncc(C(=O)NCC2CCCCC2)c(C(F)(F)F)n1 [Example 95, 2-(4-Chloro-2,6-dimethyl-phenylamino)-4-trifluoromethyl-pyrimidine-5-carboxylic acid cyclohexylmethyl-amide]	0.3 to 1	> 50	
O=C(NCC1CCCC1)c1cnc(Nc2cccc(Br)c2)nc1C(F)(F)F [Example 39, 2-(3-Bromophenylamino)-4-trifluoromethylpyrimidine-5-carboxylic acid cyclopentylmethyl-amide]	0.02 to 0.3	> 50	
O=C(NCC1CCCCC1)c1cnc(Nc2cccc(Cl)c2F)nc1C(F)(F)F [Example 167, 2-(3-Chloro-2-fluorophenylamino)-4-trifluoromethyl-pyrimidine-5-carboxylic acid cyclohexylmethyl-amide]	0.02 to 0.3	> 50	
COc1cccc(Nc2ncc(C(=O)NCc3ccccc3)c(C(F)(F)F)n2)c1 [Example 295, 2-(3-Methoxy-phenylamino)-4-trifluoromethyl-pyrimidine-5-carboxylic acid benzylamide]	0.3 to 1	> 50	
Cc1cc(CNC(=O)c2cnc(Nc3cccc(Br)c3)nc2C(F)(F)F)ccn1 [Example 304, 2-(3-Bromo-phenylamino)-4-trifluoromethyl-pyrimidine-5-carboxylic acid (2-methyl-pyridin-4-ylmethyl)-amide]	0.3 to 1	> 50	
O=C(NCC1CCCC1)c1cnc(Nc2cc(F)cc(F)c2)nc1C(F)(F)F [Example 96, 2-(3,5-Difluoro-phenylamino)-4-trifluoromethyl-pyrimidine-5-carboxylic acid cyclopentylmethyl-amide]	0.3 to 1	> 50	
O=C(NCc1ccccc1)c1cnc(Nc2ccc(Cl)cc2Cl)nc1C(F)(F)F [Example 273, 2-(2,4-Dichlorophenylamino)-4-trifluoromethylpyrimidine-5-carboxylic acid benzyl-amide]	0.02 to 0.3		
Cc1cc(Cl)ccc1Nc1ncc(C(=O)NCC2CCOCC2)c(C(F)(F)F)n1 [Example 112, 2-(4-Chloro-2-methyl-phenylamino)-4-tri-fluoromethyl-pyrimidine-5-carboxylic acid (tetrahydropyran-4-ylmethyl)-amide]	0.3 to 1	> 50	
O=C(NCC1CCOCC1)c1cnc(Nc2ccc(Cl)cc2C(F)(F)F)nc1C(F)(F)F [Example 104, 2-(2-Trifluoromethyl-4-chlorophenylamino)-4-trifluoromethyl-pyrimidine-5-carboxylic acid (tetrahydro-pyran-4-ylmethyl)-amide]	0.3 to 1	> 50	
CN(CC1CCCC1)C(=O)c1cnc(Nc2cccc(Cl)c2)nc1C(F)(F)F [Example 190, 2-(3-Chlorophenylamino)-4-trifluoromethyl-pyrimidine-5-carboxylic acid cyclopentylmethyl-methyl-amide]	0.02 to 0.3	> 50	
O=C(NCC1CCCCC1)c1cnc(Nc2ccc(Cl)cc2C(F)(F)F)nc1C(F)(F)F [Example 170, 2-(4-Chloro-2-trifluoromethylphenylamino)-4-trifluoromethyl-pyrimidine-5-carboxylic acid cyclohexylmethyl-amide]	0.02 to 0.3	> 50	
O=C(NCC1CCCC1)c1cnc(Nc2c(Cl)cccc2Cl)nc1C(F)(F)F [Example 43, 2-(2,6-Dichlorophenylamino)-4-trifluoromethylpyrimidine-5-carboxylic acid cyclopentylmethyl-amide]	0.02 to 0.3	> 50	
